PubChem BioAssay (NCI)
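Five concentrations, 48 hours, 96-well plates. The concentration for 50% growth inhibition is given as GI50. TGI: concentration producing complete growth inhibition.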

Assays:
Test in all cases: DTP human tumour cell line panel, 48 h
786-0 renal = system: 786-0 renal
A498 renal = system: A498 renal
A549 NSCLC = system: A549 NSCLC
ACHN renal = system: ACHN renal
BT-549 breast = system: BT-549 breast
CAKI-1 renal = system: CAKI-1 renal
CCRF-CEM leukemia = system: CCRF-CEM leukemia
COLO 205 colon = system: COLO 205 colon
DU-145 prostate = system: DU-145 prostate
EKVX NSCLC = system: EKVX NSCLC
HCC-2998 colon = system: HCC-2998 colon
HCT-116 colon = system: HCT-116 colon
HCT-15 colon = system: HCT-15 colon
HL-60(TB) leukemia = system: HL-60(TB) leukemia
HOP-62 NSCLC = system: HOP-62 NSCLC
HOP-92 NSCLC = system: HOP-92 NSCLC
HS 578T breast = system: HS 578T breast
HT29 colon = system: HT29 colon
IGROV1 ovarian = system: IGROV1 ovarian
K-562 leukemia = system: K-562 leukemia
KM12 colon = system: KM12 colon
LOX IMVI melanoma = system: LOX IMVI melanoma
M14 melanoma = system: M14 melanoma
MALME-3M melanoma = system: MALME-3M melanoma
MCF7 breast = system: MCF7 breast
MDA-MB-231 breast = system: MDA-MB-231 breast
MDA-MB-435 = system: MDA-MB-435
MOLT-4 leukemia = system: MOLT-4 leukemia
NCI-H226 lung = system: NCI-H226 lung
NCI-H23 lung = system: NCI-H23 lung
NCI-H460 lung = system: NCI-H460 lung
NCI-H522 lung = system: NCI-H522 lung
NCI/ADR-RES ovarian = system: NCI/ADR-RES ovarian
OVCAR-3 ovarian = system: OVCAR-3 ovarian
OVCAR-4 ovarian = system: OVCAR-4 ovarian
OVCAR-5 ovarian = system: OVCAR-5 ovarian
OVCAR-8 ovarian = system: OVCAR-8 ovarian
PC-3 prostate = system: PC-3 prostate
RPMI-8226 leukemia = system: RPMI-8226 leukemia
RXF 393 renal = system: RXF 393 renal
SF-268 CNS = system: SF-268 CNS
SF-295 CNS = system: SF-295 CNS
SF-539 CNS = system: SF-539 CNS
SK-MEL-2 melanoma = system: SK-MEL-2 melanoma
SK-MEL-28 melanoma = system: SK-MEL-28 melanoma
SK-MEL-5 melanoma = system: SK-MEL-5 melanoma
SK-OV-3 ovarian = system: SK-OV-3 ovarian
SN12C renal = system: SN12C renal
SNB-19 CNS = system: SNB-19 CNS
SNB-75 CNS = system: SNB-75 CNS
SR leukemia = system: SR leukemia
SW-620 colon = system: SW-620 colon
T-47D breast = system: T-47D breast
TK-10 renal = system: TK-10 renal
U251 CNS = system: U251 CNS
UACC-257 melanoma = system: UACC-257 melanoma
UACC-62 melanoma = system: UACC-62 melanoma
UO-31 renal = system: UO-31 renal
MDA-N = system: MDA-N

What does the source list for Fc1cccc(COc2ccc(Nc3ncncc3C#Cc3ccccc3)cc2Cl)c1?
GI50 (786-0 renal): > 25 µM; TGI (786-0 renal): > 25 µM; GI50 (A498 renal): > 17.1 µM; TGI (A498 renal): > 25 µM; GI50 (A549 NSCLC): > 25 µM; TGI (A549 NSCLC): > 25 µM; GI50 (ACHN renal): > 25 µM; TGI (ACHN renal): > 25 µM; GI50 (BT-549 breast): > 25 µM; TGI (BT-549 breast): > 25 µM; GI50 (CAKI-1 renal): 12.5 µM; TGI (CAKI-1 renal): > 25 µM; GI50 (CCRF-CEM leukemia): > 25 µM; TGI (CCRF-CEM leukemia): > 25 µM; GI50 (COLO 205 colon): > 25 µM; TGI (COLO 205 colon): > 25 µM; GI50 (DU-145 prostate): > 25 µM; TGI (DU-145 prostate): > 25 µM; GI50 (EKVX NSCLC): 8.26 µM; TGI (EKVX NSCLC): > 25 µM; GI50 (HCC-2998 colon): > 25 µM; TGI (HCC-2998 colon): > 25 µM; GI50 (HCT-116 colon): 24.4 µM; TGI (HCT-116 colon): > 25 µM; GI50 (HCT-15 colon): > 25 µM; TGI (HCT-15 colon): > 25 µM; GI50 (HL-60(TB) leukemia): > 25 µM; TGI (HL-60(TB) leukemia): > 25 µM; GI50 (HOP-62 NSCLC): > 25 µM; TGI (HOP-62 NSCLC): > 25 µM; GI50 (HOP-92 NSCLC): > 18.8 µM; TGI (HOP-92 NSCLC): > 25 µM; GI50 (HS 578T breast): > 25 µM; TGI (HS 578T breast): > 25 µM; GI50 (HT29 colon): > 25 µM; TGI (HT29 colon): > 25 µM; GI50 (IGROV1 ovarian): > 24 µM; TGI (IGROV1 ovarian): > 25 µM; GI50 (K-562 leukemia): > 25 µM; TGI (K-562 leukemia): > 25 µM; GI50 (KM12 colon): > 25 µM; TGI (KM12 colon): > 25 µM; GI50 (LOX IMVI melanoma): > 25 µM; TGI (LOX IMVI melanoma): > 25 µM; GI50 (M14 melanoma): > 25 µM; TGI (M14 melanoma): > 25 µM; GI50 (MALME-3M melanoma): > 25 µM; TGI (MALME-3M melanoma): > 25 µM; GI50 (MCF7 breast): > 25 µM; TGI (MCF7 breast): > 25 µM; GI50 (MDA-MB-231 breast): > 25 µM; TGI (MDA-MB-231 breast): > 25 µM; GI50 (MDA-MB-435): > 25 µM; TGI (MDA-MB-435): > 25 µM; GI50 (MOLT-4 leukemia): > 25 µM; TGI (MOLT-4 leukemia): > 25 µM; GI50 (NCI-H226 lung): > 25 µM; TGI (NCI-H226 lung): > 25 µM; GI50 (NCI-H23 lung): > 25 µM; TGI (NCI-H23 lung): > 25 µM; GI50 (NCI-H460 lung): > 25 µM; TGI (NCI-H460 lung): > 25 µM; GI50 (NCI-H522 lung): > 22.4 µM; TGI (NCI-H522 lung): > 25 µM; GI50 (NCI/ADR-RES ovarian): > 25 µM; TGI (NCI/ADR-RES ovarian): > 25 µM; GI50 (OVCAR-3 ovarian): > 25 µM; TGI (OVCAR-3 ovarian): > 25 µM; GI50 (OVCAR-4 ovarian): > 25 µM; TGI (OVCAR-4 ovarian): > 25 µM; GI50 (OVCAR-5 ovarian): > 25 µM; TGI (OVCAR-5 ovarian): > 25 µM; GI50 (OVCAR-8 ovarian): > 25 µM; TGI (OVCAR-8 ovarian): > 25 µM; GI50 (PC-3 prostate): > 25 µM; TGI (PC-3 prostate): > 25 µM; GI50 (RPMI-8226 leukemia): > 25 µM; TGI (RPMI-8226 leukemia): > 25 µM; GI50 (RXF 393 renal): > 25 µM; TGI (RXF 393 renal): > 25 µM; GI50 (SF-268 CNS): > 25 µM; TGI (SF-268 CNS): > 25 µM; GI50 (SF-295 CNS): > 25 µM; TGI (SF-295 CNS): > 25 µM; GI50 (SF-539 CNS): > 25 µM; TGI (SF-539 CNS): > 25 µM; GI50 (SK-MEL-2 melanoma): > 25 µM; TGI (SK-MEL-2 melanoma): > 25 µM; GI50 (SK-MEL-28 melanoma): > 25 µM; TGI (SK-MEL-28 melanoma): > 25 µM; GI50 (SK-MEL-5 melanoma): > 25 µM; TGI (SK-MEL-5 melanoma): > 25 µM; GI50 (SK-OV-3 ovarian): > 25 µM; TGI (SK-OV-3 ovarian): > 25 µM; GI50 (SN12C renal): > 25 µM; TGI (SN12C renal): > 25 µM; GI50 (SNB-19 CNS): > 25 µM; TGI (SNB-19 CNS): > 25 µM; GI50 (SNB-75 CNS): > 25 µM; TGI (SNB-75 CNS): > 25 µM; GI50 (SR leukemia): > 25 µM; TGI (SR leukemia): > 25 µM; GI50 (SW-620 colon): > 25 µM; TGI (SW-620 colon): > 25 µM; GI50 (T-47D breast): 20 µM; TGI (T-47D breast): > 25 µM; GI50 (TK-10 renal): 15 µM; TGI (TK-10 renal): > 25 µM; GI50 (U251 CNS): > 25 µM; TGI (U251 CNS): > 25 µM; GI50 (UACC-257 melanoma): > 25 µM; TGI (UACC-257 melanoma): > 25 µM; GI50 (UACC-62 melanoma): > 25 µM; TGI (UACC-62 melanoma): > 25 µM; GI50 (UO-31 renal): 21.6 µM; TGI (UO-31 renal): > 25 µM

Which results are given for Cc1c(Cl)ccc2c(=O)c3cccc(CC(=O)O)c3oc12?
TGI (786-0 renal): > 100 µM; TGI (A498 renal): > 100 µM; TGI (A549 NSCLC): > 100 µM; TGI (ACHN renal): > 100 µM; TGI (BT-549 breast): > 100 µM; TGI (CAKI-1 renal): > 100 µM; TGI (CCRF-CEM leukemia): > 100 µM; TGI (COLO 205 colon): > 100 µM; TGI (DU-145 prostate): > 100 µM; TGI (EKVX NSCLC): > 100 µM; TGI (HCC-2998 colon): > 100 µM; TGI (HCT-116 colon): > 100 µM; TGI (HCT-15 colon): > 100 µM; TGI (HL-60(TB) leukemia): > 100 µM; TGI (HOP-62 NSCLC): > 100 µM; TGI (HOP-92 NSCLC): > 100 µM; TGI (HS 578T breast): > 100 µM; TGI (HT29 colon): > 100 µM; TGI (IGROV1 ovarian): > 100 µM; TGI (K-562 leukemia): > 100 µM; TGI (KM12 colon): > 100 µM; TGI (LOX IMVI melanoma): > 100 µM; TGI (M14 melanoma): > 100 µM; TGI (MALME-3M melanoma): > 100 µM; TGI (MCF7 breast): > 100 µM; TGI (MDA-MB-231 breast): > 100 µM; TGI (MDA-MB-435): > 100 µM; TGI (MDA-N): > 100 µM; TGI (MOLT-4 leukemia): > 100 µM; TGI (NCI-H226 lung): > 100 µM; TGI (NCI-H23 lung): > 100 µM; TGI (NCI-H460 lung): > 100 µM; TGI (NCI-H522 lung): > 100 µM; TGI (NCI/ADR-RES ovarian): > 100 µM; TGI (OVCAR-3 ovarian): > 100 µM; TGI (OVCAR-4 ovarian): > 100 µM; TGI (OVCAR-8 ovarian): > 100 µM; TGI (PC-3 prostate): > 100 µM; TGI (RPMI-8226 leukemia): > 100 µM; TGI (SF-268 CNS): > 100 µM; TGI (SF-295 CNS): > 100 µM; TGI (SF-539 CNS): > 100 µM; TGI (SK-MEL-2 melanoma): > 100 µM; TGI (SK-MEL-28 melanoma): > 100 µM; TGI (SK-MEL-5 melanoma): > 100 µM; TGI (SN12C renal): > 100 µM; TGI (SNB-19 CNS): > 100 µM; TGI (SR leukemia): > 100 µM; TGI (SW-620 colon): > 100 µM; TGI (TK-10 renal): > 100 µM; TGI (U251 CNS): > 100 µM; TGI (UACC-257 melanoma): > 100 µM; TGI (UO-31 renal): > 100 µM
